{
  "source": "patent US11154071B2",
  "about": "“Sweetener iso-mogroside V” (Glvaudan SA, priority 2007, dated 2021)",
  "assay_type_in_all_cases": "in vivo",
  "key": {"[1]": {"tested_on": "sweet sensitive panelists", "assay": "Sweetness enhancement of iso-mogroside V at near threshold concentration in 7% sucrose solution, sensory panel", "conditions": "10 ppm iso-mogroside V in 7% sucrose solution", "experimental": "The sweetness enhancement properties of iso-mogroside V was determined using a sample having a concentration of 10 ppm iso-mogroside V, which is near the sweetness detection threshold, in 7% sucrose solution.\nThe iso-mogroside V sample was directly compared to samples of 7%, 8% or 9% sucrose, and panelists were instructed to compare the sweetness intensity of the samples.\nThe comparisons were carried out by a panel of 6 sweet sensitive panelists. All samples were presented to panelists in 15 ml aliquots at ambient temperature. Panelists compared the iso-mogroside V sample to each of the sucrose samples."}, "[2]": {"tested_on": "sweet sensitive panelists", "assay": "Comparison of the sweetness of mogroside V and iso-mogroside V in water, blind samples, sensory panel", "conditions": "panel of 4", "experimental": "The intensity of sweet taste of iso-mogroside V when compared to mogroside V was determined in water using near-sweetness detection threshold concentrations. The direct comparison was carried out by a panel of 4 sweet sensitive panelists. Blind samples (identity unidentifiable by panelists) were randomly presented to panelists in 15 ml aliquots at ambient temperature. Sensory evaluation started with the lower sample concentration (10 ppm)."}, "[3]": {"assay": "Preliminary experiments on flavour enhancing effect on sweeteners"}, "[4]": {"tested_on": "sweet sensitive panelists", "assay": "Determination of the sweetness threshold of iso-mogroside V: isointensity to sucrose solutions, paired comparison", "experimental": "[…] Samples were paired and tasted left to right with rinsing of the mouth (water) in-between. 20 ppm iso-mogroside V was evaluated as described but with 4 sweet sensitive panelists and 0.5, 1.0 and 1.5% sucrose."}},
  "data": [
    {"smiles": "C[C@H](CC[C@@H](O[C@@H]1O[C@H](CO[C@@H]2O[C@H](CO)[C@@H](O)[C@H](O)[C@H]2O)[C@@H](O)[C@H](O)[C@H]1O[C@@H]1O[C@H](CO)[C@@H](O)[C@H](O)[C@H]1O)C(C)(C)O)[C@H]1CC[C@@]2(C)[C@@H]3CC=C4[C@@H](CC[C@H](O[C@@H]5O[C@H](CO)[C@@H](O[C@@H]6O[C@H](CO)[C@@H](O)[C@H](O)[C@H]6O)[C@H](O)[C@H]5O)C4(C)C)[C@]3(C)[C@H](O)C[C@]12C", "note": "[iso-mogroside V, 3-[(4-O-β-D-glucopyranosyl-β-D-glucopyranosyl)oxy]-mogrol-24-O-β-D-glucopyranosyl-(1→2)-O-[β-D-glucopyranosyl-(1→6)]-β-D-glucopyranoside]", "values": [
      {"measurement": "panelists who found the sample as sweet or sweeter as 8% sucrose", "setting": "[1]", "result": "5 of 6"},
      {"measurement": "panelists who found the sample sweeter than 7% but less sweet than 8% sucrose", "setting": "[1]", "result": "1 of 6"},
      {"measurement": "sweetness enhancement effect (equal to sucrose)", "setting": "[1]; after subtracting own sweetness of 0.5% sucrose", "result": "≥ 0.5", "unit": "% sucrose"},
      {"measurement": "sweetness of iso-mogroside V sample (equal to sucrose)", "setting": "[1]; compared to 7%, 8% or 9% sucrose, panel of 6", "result": "≥ 8", "unit": "% sucrose"},
      {"measurement": "Taste of iso-mogroside V samples compared to mogroside V", "setting": "[2]; 10 ppm in water", "result": "sweeter"},
      {"measurement": "panelists who indicated iso-mogroside V is sweeter than mogroside V", "setting": "[2]; 10 ppm in water", "result": "two"},
      {"measurement": "Taste of iso-mogroside V samples compared to mogroside V", "setting": "[2]; 20 ppm in water", "result": "sweeter"},
      {"measurement": "panelists who indicated iso-mogroside V is sweeter than mogroside V", "setting": "[2]; 20 ppm in water", "result": 4, "unit": "panelists"},
      {"measurement": "flavour enhancing effect on sweeteners compared to its known isomer (mogroside V)", "setting": "[3]", "result": "particularly high flavour enhancing effect"},
      {"measurement": "Taste of iso-mogroside V samples compared to sucrose", "setting": "[4]; 10 ppm in water vs 0% sucrose (water), 5 panelists", "result": "sweeter"},
      {"measurement": "Taste of iso-mogroside V samples compared to sucrose", "setting": "[4]; 10 ppm in water vs 0.5% sucrose, 5 panelists", "result": "isosweet"},
      {"measurement": "Taste of iso-mogroside V samples compared to sucrose", "setting": "[4]; 10 ppm in water vs 1.0% sucrose, 5 panelists", "result": "less sweet"},
      {"measurement": "Taste of iso-mogroside V samples compared to sucrose", "setting": "[4]; 20 ppm in water vs 0.5% sucrose, 4 panelists", "result": "sweeter"},
      {"measurement": "Taste of iso-mogroside V samples compared to sucrose", "setting": "[4]; 20 ppm in water vs 1% sucrose, 4 panelists", "result": "isosweet"},
      {"measurement": "Taste of iso-mogroside V samples compared to sucrose", "setting": "[4]; 20 ppm in water vs 1.5% sucrose, 4 panelists", "result": "less sweet"},
      {"measurement": "equivalent sweetness intensity at the sweetness detection threshold", "setting": "[4]; about 0.2 ppm in water as stated", "result": "about 0.5 % sucrose"},
      {"measurement": "sweetness relative to sucrose", "setting": "[4]; from 10 ppm isosweet to 0.5% sucrose", "result": "about 500 times"}
    ]}
  ]
}
